Counter-ions that a name gives are not always drawn.

T1 sequence (P37288 whole entry): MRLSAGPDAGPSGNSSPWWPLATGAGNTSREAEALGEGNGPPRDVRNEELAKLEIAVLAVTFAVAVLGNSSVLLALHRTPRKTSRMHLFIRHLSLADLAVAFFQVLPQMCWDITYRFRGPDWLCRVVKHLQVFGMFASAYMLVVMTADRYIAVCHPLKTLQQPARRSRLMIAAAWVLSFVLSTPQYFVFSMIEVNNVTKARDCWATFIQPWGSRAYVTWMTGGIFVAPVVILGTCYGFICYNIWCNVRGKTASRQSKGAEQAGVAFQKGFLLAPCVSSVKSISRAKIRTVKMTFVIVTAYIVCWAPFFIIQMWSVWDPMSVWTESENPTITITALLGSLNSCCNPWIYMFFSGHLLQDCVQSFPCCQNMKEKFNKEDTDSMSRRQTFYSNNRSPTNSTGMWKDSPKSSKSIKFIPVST

This test concerns the target T1, human V1a receptor (Homo sapiens, UniProt P37288).
T1 construct: expressed in transfected cells; host or cells: HEK293 cells, transiently transfected; cell membranes
Nature of the test: human V1a receptor binding studies (3H-Vasopressin, SPA beads). To be noted: membranes from HEK293 cells transiently transfected with human V1a receptor, Ki calculated from IC50 by the Cheng-Prussoff equation, read-out: pKi (hV1a) (converted). The method, then: The human V1a receptor was cloned by RT-PCR from total human liver RNA. The coding sequence was subcloned in an expression vector after sequencing to confirm the identity of the amplified sequence. […] Cell membranes were prepared from HEK293 cells transiently transfected with the expression vector and grown in 20 liter fermenters with the following protocol.
50 g of cells are resuspended in 30 ml freshly prepared ice cold Lyses buffer (50 mM HEPES, 1 mM EDTA, 10 mM magnesium dichloride adjusted to pH=7.4+complete cocktail of protease inhibitor (Roche Diagnostics)). Homogenized with Polytron for 1 min and solicited on ice for 2×2 minutes at 80% intensity (Vibrate solicitor). The preparation is centrifuged 20 min at 500 g at 4° C., the pellet is discarded and the supernatant centrifuged 1 hour at 43′000 g at 4° C. (19′000 rpm). The pellet is resuspended in 12.5 ml Lyses buffer+12.5 ml sucrose 20% and homogenized using a Polytron for 1-2 min. The protein concentration is determined by the Bradford method and aliquots are stored at −80° C. until use. For binding studies 60 mg Yttrium silicate SPA beads (Habersham®) are mixed with an aliquot of membrane in binding buffer (50 mM Tris, 120 mM sodium chloride, 5 mM potassium chloride, 2 mM calcium dichloride, 10 mM magnesium dichloride) for 15 minutes with mixing. 50 μl of bead/membrane mixture is then added to each well of a 96 well plate, followed by 50 μl of 4 nM 3H-Vasopressin (American Radiolabeled Chemicals). For total binding measurement 100 μl of binding buffer are added to the respective wells, for non-specific binding 100 μl of 8.4 mM cold vasopressin and for compound testing 100 μl of a serial dilution of each compound in 2% dimethyl sulfoxide. The plate is incubated 1 h at room temperature, centrifuged 1 min at 1000 g and counted on a Packard Top-Count. Non-specific binding counts are subtracted from each well and data is normalized to the maximum specific binding set at 100%. To calculate an IC50 the curve is fitted using a non-linear regression model (XLfit) and the Ki is calculated using the Cheng-Prussoff equation.
As for `CN1Cc2cc(Cl)ccc2-n2c(nnc2[C@H]2CC[C@@H](c3ncccc3F)CC2)C1` [Example 47, cis-8-Chloro-1-[4-(3-fluoro-pyridin-2-yl)-cyclohexyl]-5-methyl-5,6-dihydro-4H-2,3,5,10b-tetraaza-benzo[e]azulene], the Ki was 25.1 nM.

On to `Cc1cncc([C@H]2CC[C@H](c3nnc4n3-c3ccc(Cl)cc3CN(C)C4)CC2)n1` [Example 74, trans-8-Chloro-5-methyl-1-[4-(6-methyl-pyrazin-2-yl)-cyclohexyl]-5,6-dihydro-4H-2,3,5,10b-tetraaza-benzo[e]azulene], for which the Ki is 11.2 nM.

Take `O=C(CO)N1Cc2cc(Cl)ccc2-n2c(nnc2[C@H]2CC[C@H](c3ncccc3F)CC2)C1` [Example 38, trans-1-{8-Chloro-1-[4-(3-fluoro-pyridin-2-yl)-cyclohexyl]-4H,6H-2,3,5,10b-tetraaza-benzo[e]azulen-5-yl}-2-hydroxy-ethanone]: the Ki was 2.29 nM.

Take `Cc1cccc([C@H]2CC[C@H](c3nnc4n3-c3ccc(Cl)cc3CN(C(=O)OC(C)(C)C)C4)CC2)n1` [Example 4, trans-8-Chloro-1-[4-(6-methyl-pyridin-2-yl)-cyclohexyl]-4H,6H-2,3,5,10b-tetraaza-benzo[e]azulene-5-carboxylic acid tert-butyl ester]: the Ki was 0.2 nM.

With `CN1Cc2cc(Cl)ccc2-n2c(nnc2[C@H]2CC[C@H](c3ccccn3)CC2)C1` [Example 3, trans-8-Chloro-5-methyl-1-(4-pyridin-2-yl-cyclohexyl)-5,6-dihydro-4H-2,3,5,10b-tetraaza-benzo[e]azulene], the Ki was 0.794 nM.

With `CC(C)c1cccc([C@H]2CC[C@H](c3nnc4n3-c3ccc(Cl)cc3CN(C(=O)OC(C)(C)C)C4)CC2)n1` [Example 10, trans-8-Chloro-1-[4-(6-isopropyl-pyridin-2-yl)-cyclohexyl]-4H,6H-2,3,5,10b-tetraaza-benzo[e]azulene-5-carboxylic acid tert-butyl ester], the Ki was 2.19 nM.

For `CC(C)(C)OC(=O)N1Cc2cc(Cl)ccc2-n2c(nnc2[C@H]2CC[C@H](c3ncccc3Cl)CC2)C1` [Example 82, trans-8-Chloro-1-[4-(3-chloro-pyridin-2-yl)-cyclohexyl]-4H,6H-2,3,5,10b-tetraaza-benzo[e]azulene-5-carboxylic acid tert-butyl ester], the Ki was 0.501 nM.

In the case of `Clc1ccc2c(c1)CNCc1nnc([C@H]3CC[C@H](c4cccnc4Cl)CC3)n1-2` [Example 52, trans-8-Chloro-1-[4-(2-chloro-pyridin-3-yl)-cyclohexyl]-5,6-dihydro-4H-2,3,5,10b-tetraaza-benzo[e]azulene], the Ki is 81.3 nM.

As to `Clc1ccc2c(c1)CNCc1nnc([C@H]3CC[C@H](c4cccnc4)CC3)n1-2` [Example 49, trans-8-Chloro-1-(4-pyridin-3-yl-cyclohexyl)-5,6-dihydro-4H-2,3,5,10b-tetraaza-benzo[e]azulene], the Ki is 33.9 nM.

Take `CN1Cc2cc(Cl)ccc2-n2c(nnc2[C@H]2CC[C@H](c3cccnc3F)CC2)C1` [Example 56, trans-8-Chloro-1-[4-(2-fluoro-pyridin-3-yl)-cyclohexyl]-5-methyl-5,6-dihydro-4H-2,3,5,10b-tetraaza-benzo[e]azulene]: the Ki is 8.13 nM.

As for `CNCCN1Cc2cc(Cl)ccc2-n2c(nnc2[C@H]2CC[C@H](c3ncccc3F)CC2)C1` [Example 36, trans-(2-{8-Chloro-1-[4-(3-fluoro-pyridin-2-yl)-cyclohexyl]-4H,6H-2,3,5,10b-tetraaza-benzo[e]azulen-5-yl}-ethyl)-methyl-amine], the Ki was 28.2 nM.

Regarding `Cc1cnc(C)c([C@H]2CC[C@H](c3nnc4n3-c3ccc(Cl)cc3CNC4)CC2)n1` [Example 79, trans-8-Chloro-1-[4-(3,6-dimethyl-pyrazin-2-yl)-cyclohexyl]-5,6-dihydro-4H-2,3,5,10b-tetraaza-benzo[e]azulene hydrochloride], the Ki was 6.76 nM.

The record behind these values is US8492376B2, “Heteroaryl-cyclohexyl-tetraazabenzo[e]azulenes” (Hoffmann-La Roche Inc., priority 2010, dated 2013).
